Key:
[1] = system: men undergoing robotic radical prostatectomy; test: Prospective outcome study of robotic radical prostatectomy with phenylephrine infiltration for hemostasis (57 men, IIEF >= 20): continence by pad use, potency by intercourse; assay type: in vivo, human
Procedure: (§1) A group of men who were in need of a prostatectomy were tested. All men undergoing robotic radical prostatectomy after June 2009 were given informed consent regard to and asked to participate in a prospective study of outcomes of robotic radical prostatectomy. Baseline data were obtained preoperatively with regard to sexual and urinary function using self-administered International Index of Erectile Function and International Prostate Symptom Score Questionnaires. Additionally, patients were asked if they had experienced intercourse, urinary incontinence or pad used in the 4 weeks prior to the initial screening visit. Only patients with a pre-operative score on the International Index of Erectile Function of greater than or equal to 20 were included in the post-operative analysis of continence and potency.
(§2) A standard method of prostatectomy was used except that hemostasis was achieved by the infiltration of phenylephrine at a concentration of 100 micrograms per milliliter into the anterior and antero lateral bladder neck (1000 micrograms), right lateral bladder neck (1,000 micrograms), left lateral bladder neck (1,000 micrograms), right prostatic vascular pedicle and neurovascular margin (1,000 micrograms) and left prostatic vascular pedicles and neurovascular margin (1,000 micrograms) for a total of 5,000 micrograms of the agent. Sharp cold dissection was then performed with either the Snap Blade or the Shears with rare spot use of bipolar cautery. Monopolar cautery was not used during any part of the procedure.
Continence was assessed in the post-operative period by pad use with one pad per day or less being considered as “socially continent.” The use of zero pads per day was considered “absolutely continent” Or “complete continence.” The time necessary to achieve each of these milestones was recorded individually for each subject. The end point of sexual recovery was intercourse, and the experience of intercourse was monitored at each post-operative visit. Intercourse was experienced by 21% of men within the 4 weeks prior to initial evaluation. […] Additional follow-up evaluations were done at 8 and 12 weeks post-operative time points. […] Intercourse at the 9 month interval (39 weeks) was established by phone interview in those men not reporting intercourse at the 6 month visit, and for whom interim follow up was not scheduled.
All patients in this study were given informed consent for participation in a prospective study of outcomes of robotic radical prostatectomy. No patients withdrew. Fifty seven (57) men among all patients operated had IIEF scores of 20 or greater. Two patients refused or were lost to follow-up for other reasons. All observations were collected in a prospective fashion and maintained in our IRB approved database of patients having robotic surgery.
Analysis of differences in means was performed by Student's t-test. The differences in proportions were calculated by the Chi-squared test. The probability of return of social continence, absolute continence, and the probability of intercourse was calculated by the Kaplan Meier function.

[2] = system: men undergoing robotic radical prostatectomy; test: Ongoing study of the 57 subjects plus 23 new subjects (80 men): intercourse and pad use after prostatectomy with phenylephrine infiltration; assay type: in vivo, human; settings: for Intercourse: reflects use of phosphodiesterase inhibitors
Procedure: as §1, §2
Continence was assessed in the post-operative period by pad use with one pad per day or less being considered as “socially continent.” The use of zero pads per day was considered “absolutely continent” Or “complete continence.” The time necessary to achieve each of these milestones was recorded individually for each subject. The end point of sexual recovery was intercourse, and the experience of intercourse was monitored at each post-operative visit. Intercourse was experienced by 21% of men within the 4 weeks prior to initial evaluation. It is noteworthy that two (2) weeks lapsed between the surgery and the removal of the urinary catheter, thus the initial evaluation of sexual function occurred 2 weeks following removal of the catheter, or 4 weeks following surgery. Additional follow-up evaluations were done at 8 and 12 weeks post-operative time points. […] Intercourse at the 9 month interval (39 weeks) was established by phone interview in those men not reporting intercourse at the 6 month visit, and for whom interim follow up was not scheduled.
An ongoing study of the 57 subjects described above as well as an additional 23 new subjects was also performed.

[3] = 2 weeks postoperative, 57 patients
[4] = 4 weeks postoperative, 57 patients
[5] = 6 weeks postoperative, 57 patients
[6] = 8 weeks postoperative, 56 patients
[7] = 12 weeks postoperative, 55 patients
[8] = 26 weeks postoperative, 46 patients
[9] = 39 weeks postoperative, 38 patients
[10] = 52 weeks postoperative, 37 patients
[11] = 78 weeks postoperative, 23 patients
[12] = 12 weeks (3 mos) post op, 77 patients
[13] = 26 weeks (6 mos) post op, 71 patients
[14] = 39 weeks (9 mos) post op, 63 patients
[15] = 52 weeks (12 mos) post op, 53 patients
[16] = 78 weeks (1.5 yrs) post op, 30 patients
[17] = 104 weeks (2.0 yrs) post op, 14 patients
[18] = within about 52 weeks following surgery, FIG. 4

CNC[C@H](O)c1cccc(O)c1 [phenylephrine]
Complete Continence Number (%) [1, 3]: 10 (18%) Number (%)
Potency Number (%) [1, 3]: 7 (12%) Number (%)
Social Continence Number (%) ([1]; 2 weeks postoperative, 57 patients, 5,000 micrograms phenylephrine infiltrated): 20 (35%) Number (%)
Complete Continence Number (%) [1, 4]: 17 (30%) Number (%)
Potency Number (%) [1, 4]: 12 (21%) Number (%)
Social Continence Number (%) [1, 4]: 31 (54%) Number (%)
Complete Continence Number (%) [1, 5]: 16 (28%) Number (%)
Potency Number (%) [1, 5]: 14 (25%) Number (%)
Social Continence Number (%) [1, 5]: 32 (56%) Number (%)
Complete Continence Number (%) [1, 6]: 17 (30%) Number (%)
Potency Number (%) [1, 6]: 15 (27%) Number (%)
Social Continence Number (%) [1, 6]: 33 (58%) Number (%)
Complete Continence Number (%) [1, 7]: 20 (36%) Number (%)
Potency Number (%) [1, 7]: 23 (42%) Number (%)
Social Continence Number (%) [1, 7]: 40 (73%) Number (%)
Complete Continence Number (%) [1, 8]: 26 (57%) Number (%)
Potency Number (%) [1, 8]: 24 (52%) Number (%)
Social Continence Number (%) [1, 8]: 40 (87%) Number (%)
Complete Continence Number (%) [1, 9]: 24 (63%) Number (%)
Potency Number (%) [1, 9]: 20 (53%) Number (%)
Social Continence Number (%) [1, 9]: 34 (89%) Number (%)
subjects at risk with social continence ([1]; 52-week mark, Kaplan Meier plot FIG. 1): 100%
Complete Continence Number (%) [1, 10]: 35 (95%) Number (%)
Potency Number (%) [1, 10]: 34 (92%) Number (%)
Social Continence Number (%) [1, 10]: 37 (100%) Number (%)
subjects with complete continence ([1]; 78-week time point, Kaplan Meier plot FIG. 2): 100%
potency following surgery ([1]; 78-week time point, Kaplan Meier plot FIG. 3): Complete potency was achieved
Complete Continence Number (%) [1, 11]: 23 (100%) Number (%)
Potency Number (%) [1, 11]: 23 (100%) Number (%)
Social Continence Number (%) [1, 11]: 23 (100%) Number (%)
Potency Number (%) ([1]; week 0 (pre-surgical baseline), 57 patients, intercourse): 51 (89%) Number (%)
Social Continence Number (%) ([1]; week 0 (pre-surgical baseline), 57 patients, one pad per day or less): 57 (100%) Number (%)
Complete Continence Number (%) ([1]; week 0 (pre-surgical baseline), 57 patients, zero pads per day): 57 (100%) Number (%)
men who experienced intercourse ([1]; within the 4 weeks prior to initial evaluation (4 weeks following surgery)): 21%
One or less pad per 24 hours ([2]; 2 weeks post op, 79 patients): 32%
Zero Pads per 24 hours ([2]; 2 weeks post op, 79 patients): 18%
Intercourse ([2]; 2 weeks post op, 79 patients): 10%
One or less pad per 24 hours ([2]; 4 weeks post op, 78 patients): 49%
Zero Pads per 24 hours ([2]; 4 weeks post op, 78 patients): 28%
Intercourse ([2]; 4 weeks post op, 78 patients): 19%
One or less pad per 24 hours ([2]; 6 weeks post op, 77 patients): 58%
Zero Pads per 24 hours ([2]; 6 weeks post op, 77 patients): 27%
Intercourse ([2]; 6 weeks post op, 77 patients): 25%
One or less pad per 24 hours ([2]; 8 weeks post op, 77 patients): 60%
Zero Pads per 24 hours ([2]; 8 weeks post op, 77 patients): 28%
Intercourse ([2]; 8 weeks post op, 77 patients): 27%
One or less pad per 24 hours [2, 12]: 73%
Zero Pads per 24 hours [2, 12]: 36%
Intercourse [2, 12]: 42%
One or less pad per 24 hours [2, 13]: 89%
Zero Pads per 24 hours [2, 13]: 52%
Intercourse [2, 13]: 58%
One or less pad per 24 hours [2, 14]: 92%
Zero Pads per 24 hours [2, 14]: 65%
Intercourse [2, 14]: 67%
One or less pad per 24 hours [2, 15]: 100%
Zero Pads per 24 hours [2, 15]: 85%
Intercourse [2, 15]: 83%
One or less pad per 24 hours [2, 16]: 100%
Zero Pads per 24 hours [2, 16]: 83%
Intercourse [2, 16]: 77%
One or less pad per 24 hours [2, 17]: 100%
Zero Pads per 24 hours [2, 17]: 93%
Intercourse [2, 17]: 93%
time within which social continence was achieved for all subjects ([2]; following surgery, FIG. 4): ≤ 52 weeks
One or less pad per 24 hours ([2]; week 0 (Pre Op), 80 patients): 100%
Zero Pads per 24 hours ([2]; week 0 (Pre Op), 80 patients): 99%
Intercourse ([2]; week 0 (Pre Op), 80 patients): 90%
subjects achieving absolute continence [2, 18]: more than 80%
subjects achieving sexual function (intercourse) [2, 18]: about 80%
